Common to all, as to assay type: cell-based
Series [1] deals with T1, ABCG2 (Homo sapiens, UniProt Q9UNQ0).
T1 sequence (Q9UNQ0 1-655): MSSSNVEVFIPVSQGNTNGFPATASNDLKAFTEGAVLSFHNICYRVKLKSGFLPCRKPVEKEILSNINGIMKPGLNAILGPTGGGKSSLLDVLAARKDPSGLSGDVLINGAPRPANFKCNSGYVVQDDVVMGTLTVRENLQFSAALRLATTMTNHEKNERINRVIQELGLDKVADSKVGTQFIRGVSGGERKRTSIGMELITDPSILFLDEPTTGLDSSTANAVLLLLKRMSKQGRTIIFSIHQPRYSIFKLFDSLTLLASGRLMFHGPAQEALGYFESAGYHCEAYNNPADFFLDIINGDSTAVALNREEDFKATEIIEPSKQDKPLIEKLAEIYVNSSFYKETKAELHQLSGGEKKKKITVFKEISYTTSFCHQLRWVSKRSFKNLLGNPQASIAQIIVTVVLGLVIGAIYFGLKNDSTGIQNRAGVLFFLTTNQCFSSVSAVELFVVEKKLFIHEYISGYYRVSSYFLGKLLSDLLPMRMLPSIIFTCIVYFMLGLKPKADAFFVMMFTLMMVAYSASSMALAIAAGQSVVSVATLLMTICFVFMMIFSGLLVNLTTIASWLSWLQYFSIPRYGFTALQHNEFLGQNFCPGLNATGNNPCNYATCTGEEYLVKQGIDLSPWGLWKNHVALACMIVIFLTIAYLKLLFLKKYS
Nature of the series: BLI D-luciferin efflux inhibition in HEK293/ABCG2/fLuc cells.

Series [2] concerns the target T1, ABCG2. Briefly: BODIPY-prazosin uptake in HEK293/ABCG2 cells at […].
For series [3], the target named is T1, ABCG2.

Where a name gives a salt, the structure may show the parent alone.

Usually IC50 stands for the point on the concentration scale where inhibition reaches its midpoint. High values mean a need for much substance, low ones inhibition by little substance. On to `Cc1c(-c2ccccc2)oc2c(C(=O)OCCN3CCCCC3)cccc2c1=O` [flavoxate hydrochloride], for which the IC50 on ABCG2 [1] is around 20 µM. For the compound `C=C(C)[C@H]1Cc2c(ccc3c2O[C@@H]2COc4cc(OC)c(OC)cc4[C@@H]2C3=O)O1` [rotenone], the “BODIPY-prazosin uptake in HEK293/ABCG2 cells at 20 μM; BLI 6.7-fold enhancement;” value at ABCG2 [2] is on record as “rotenone|Y|Y”. Consider `CC(C)C(=O)Nc1ccc([N+](=O)[O-])c(C(F)(F)F)c1` [flutamide], for which the “BODIPY-prazosin uptake in HEK293/ABCG2 cells at 20 μM; BLI 6.1-fold enhancement;” value on ABCG2 [3] is reported as “flutamide|Y|Y”.

In turn, `COc1cc(N)c(Cl)cc1C(=O)NC1CCN(Cc2ccccc2)CC1` [clebopride maleate] had an IC50 against ABCG2 [1] of around 8.2 µM.

Turning to `COc1cc2nc(N3CCN(C(=O)C4COc5ccccc5O4)CC3)nc(N)c2cc1OC` (centres unmarked) [doxazosin mesylate], the half-maximal inhibitory concentration (IC50) at ABCG2 [1] was around 8 µM.
